Test results: US8101768B2, “Cyclic amine compound and pest control agent” (Nippon Soda Co., Ltd., priority 2004, dated 2012)

Assays:
Format in all cases: in vivo
army worms = assay: Effect on Army Worm (artificial feed test); conditions: 10 μg of compound on 0.2 ml artificial feed, second instar, 25° C., 5 days
Protocol: Test feeds were prepared by filling plastic test tubes (capacity of 1.4 ml) with 0.2 ml of a commercial artificial feed (Insecta LFS, manufactured by Nosan Corporation). Each of 1% chemical compound solutions was prepared by using DMSO (containing 0.5% tween 20), which was then dropped into the surface of the feed in amount of 10 μg of the respective chemical compounds. 2 army worms, each of which was in the second instar, were inoculated into each of the test tubes, which were then sealed by their plastic caps. After they were left at 25° C. for 5 days, the rate of killed army worms and their feed consumptions were investigated. The test was repeated twice. […] 1-8, 1-9, 1-13, 1-15, 1-17, 1-22, 1-23, 1-27, 1-39, 1-45, 1-46, 1-59, 1-69, 1-72, 1-74, 1-75, 1-79, 1-80, 1-83, 1-95, 1-97, 1-981-100, 1-105, 1-108, 1-114, 1-133, 1-140, 1-147, 1-153, 1-165, 1-166, 1-181, 1-182, 1-183, 1-184, 1-187, 1-189, 1-190,

[1] = tested on: acaricide resistant citrus red mites; assay: Effect on Citrus Red Mite (spray on mandarin orange leaves); conditions: 31 ppm, emulsifiable concentrate of Formulation Example 2 sprayed, 10 female adults, 25° C., 65% humidity
Protocol: Effect on Citrus Red Mite
10 female adults of acaricide resistant citrus red mites were inoculated onto leaves of a mandarin orange placed on dishes, onto which each of liquid agents, diluted with water so as to adjust the respective concentration of the chemical compounds to 31 ppm according to the formulation of the emulsifiable concentrate shown in the aforementioned Formulation Example 2, was sprayed by using a rotating sparge tower. After they were left in a thermostatic chamber at 25° C. in 65% humidity for 3 days, and were then removed from the dishes, eggs laid for 3 days were investigated whether they could grow to adults or not on the eleventh day. As the results, the following chemical compounds killed 100% of the adults. 1-13, 1-15, 1-22, 1-27, 1-45, 1-54, 1-59, 1-63, 1-66, 1-69, 1-71, 1-72, 1-75, 1-80, 1-88, 1-89, 1-92, 1-93, 1-94, 1-97, 1-98, 1-100, 1-102, 1-105, 1-108, 1-133, 1-136, 1-142, 1-153, 1-181, 1-183, 1-186, 1-187, 1-188, 1-189, 1-190, 1-191,

[2] = tested on: organophosphorous agent resistant two-spotted spider mites; assay: Effect on Two-spotted Spider Mite (spray on kidney bean leaves); conditions: 125 ppm, water dispersible powder of Formulation Example 1 sprayed, 17 female adults, 25° C., 65% humidity, 3 days
Procedure, shortened: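 Mortality of adult females counted after 3 days at 25 °C and 65% humidity, following a 125 ppm spray of wettable-powder dilution onto infested 7–10-day-old bean seedlings (17 mites per leaf). Two replicates.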

Structure (SMILES)	killed 100% of the army worms, or inhibited their feed consumptions, in comparison with a solvent control area, to 10% or less (effective) (army worms)	killed ... of the adults (eggs laid for 3 days investigated whether they could grow to adults on the eleventh day) [1]	rate of killed adults [2]
COCOCc1cc(C(F)(F)F)ccc1OC1CCN(c2ccc(C(F)(F)F)cn2)CC1C (mixture of isomers) [1-183]	effective	100%	100%
CCCOc1cc(C(F)(F)F)ccc1O[C@H]1CCN(c2ccc(C(F)(F)F)cn2)C[C@H]1C (relative stereo) [1-97, cis-3-methyl-4-[2-propoxy-4-(triphloromethyl)phenoxy]-1-[5-(trifluoromethyl)-2-pyridyl]piperidine]	effective	100%	100%
Fc1cc(C(F)(F)F)ccc1OC1CCN(c2ccc(C(F)(F)F)cn2)CC1 [1-8]	effective	–	100%
Fc1ccc(OC2CCN(c3ccc(C(F)(F)F)cn3)CC2)cc1C(F)(F)F [1-9]	effective	–	100%
FC(F)(F)c1ccc(N2CCC(Oc3ccc(C(F)(F)F)cc3Cl)CC2)nc1 [1-13]	effective	100%	100%
FC(F)(F)c1ccc(N2CCC(Oc3ccc(Cl)c(C(F)(F)F)c3)CC2)nc1 [1-15, 4-[4-chloro-3-(trifluoromethyl)phenoxy]-1-[5-(trifluoromethyl)-2-pyridyl]-piperidine]	effective	100%	100%
FC(F)(F)c1ccc(N2CCC(Oc3c(Cl)cc(C(F)(F)F)cc3Br)CC2)nc1 [1-17]	effective	–	100%
FC(F)(F)c1ccc(N2CCC(Oc3ccc(C(F)(F)F)cc3Br)CC2)nc1 [1-22]	effective	100%	100%
FC(F)(F)c1ccc(N2CCC(Oc3ccc(Br)c(C(F)(F)F)c3)CC2)nc1 [1-23, 4-[4-bromo-3-(trifluoromethyl)phenoxy]-1-[5-(trifluoromethyl)-2-pyridyl]-piperidine]	effective	–	100%
FC(F)(F)c1ccc(N2CCC(Oc3ccc(C(F)(F)F)cc3I)CC2)nc1 [1-27]	effective	100%	100%
O=[N+]([O-])c1ccc(OC2CCN(c3ccc(C(F)(F)F)cn3)CC2)cc1C(F)(F)F [1-39, 4-[4-nitro-3-(trifluoromethyl)phenoxy]-1-[5-(trifluoromethyl)-2-pyridyl]-piperidine]	effective	–	–
Cc1cc(C(F)(F)F)ccc1OC1CCN(c2ccc(C(F)(F)F)cn2)CC1 [1-45]	effective	100%	100%
Cc1cc(OC(F)(F)F)ccc1OC1CCN(c2ccc(C(F)(F)F)cn2)CC1 [1-46]	effective	–	100%
CCCc1cc(C(F)(F)F)ccc1OC1CCN(c2ccc(C(F)(F)F)cn2)CC1 [1-59]	effective	100%	100%
COCOCc1cc(C(F)(F)F)ccc1OC1CCN(c2ccc(C(F)(F)F)cn2)CC1 [1-69]	effective	100%	100%
COC(C)OCc1cc(C(F)(F)F)ccc1OC1CCN(c2ccc(C(F)(F)F)cn2)CC1 (stereo not shown) [1-72]	effective	100%	100%

Structure (SMILES)	killed 100% of the army worms, or inhibited their feed consumptions, in comparison with a solvent control area, to 10% or less (effective) (army worms)	killed ... of the adults (eggs laid for 3 days investigated whether they could grow to adults on the eleventh day) [1]	rate of killed adults [2]
C=CCc1cc(C(F)(F)F)ccc1OC1CCN(c2ccc(C(F)(F)F)cn2)CC1 [1-74]	effective	–	100%
FC(F)(F)c1ccc(N2CCC(Oc3cc(C(F)(F)F)cc(C(F)(F)F)c3)CC2)nc1 [1-79]	effective	–	100%
FC(F)(F)c1ccc(OC2CCN(c3ncc(C(F)(F)F)cc3Cl)CC2)cc1 [1-83]	effective	–	–
CCCOc1cc(C(F)(F)F)ccc1OC1CCN(c2ccc(C(F)(F)F)cn2)CC1(C)C(=O)OCC (stereo not shown) [1-95]	effective	–	–
CC(C)(C)COc1cc(C(F)(F)F)ccc1OC1CCN(c2ccc(C(F)(F)F)cn2)CC1 [1-114]	effective	–	100%
FC(F)(F)c1ccc(N2CCC(Oc3ccc(C(F)(F)F)cc3OCCCl)CC2)nc1 [1-140]	effective	–	100%
FC(F)(F)Sc1ccc(OC2CCN(c3ccc(C(F)(F)F)cn3)CC2)cc1 [1-147]	effective	–	100%
FC(F)(F)c1cnc(N2CCC(Oc3c(Cl)cc(OCC=C(Cl)Cl)c(Cl)c3Cl)CC2)c(Cl)c1 [1-165]	effective	–	–
FC(F)(F)c1ccc(N2CCC(Oc3c(Cl)cc(OCC=C(Cl)Cl)c(Cl)c3Cl)CC2)nc1 [1-166]	effective	–	–
CCCOCc1cc(C(F)(F)F)ccc1OC1CCN(c2ccc(C(F)(F)F)cn2)CC1 [1-182]	effective	–	100%
COCOC(C)c1cc(C(F)(F)F)ccc1OC1CCN(c2ccc(C(F)(F)F)cn2)CC1 (stereo not shown) [1-184]	effective	–	100%
CC1(C)COC(c2cc(C(F)(F)F)ccc2O[C@@H]2[C@@H]3CC[C@H]2CN(c2ccc(C(F)(F)F)cn2)C3)N1 (stereo partly shown) [5-262]	–	100%	100%
CCCOc1cc(C(F)(F)F)ccc1OC1C2CCCC1CN(c1ccc(C(F)(F)F)cn1)C2 (stereo not shown) [7-82, 90-[2-propoxy-4-(trifluoromethyl)phenoxy]-3-[5-(trifluoromethyl)-2-pyridyl]-3-azabicyclo[3.3.1]nonane]	–	100%	100%
COCOc1cc(C(F)(F)F)ccc1OC1C2CCCC1CN(c1ccc(C(F)(F)F)cn1)C2 (stereo not drawn) [7-100, 9β-[2-methoxymethoxy-4-(trifluoromethyl)phenoxy]-3-[5-(trifluoromethyl)-2-pyridyl]-3-azabicyclo[3.3.1]nonane]	–	100%	100%
FC(F)(F)c1ccc(N2C[C@H]3CCC[C@@H](C2)[C@@H]3Oc2ccc(C(F)(F)F)cc2OCC2CC2)nc1 [7-103]	–	100%	100%
